# Reference: patent US7994162B2, “2-alkoxy-3,4,5-trihydroxy-alkylamide-benzazepines, the preparation and use thereof, and compositions containing the same” (Sanofi-Aventis, priority 2006, dated 2011)
# pIC50: −log10 of the molar value.
# Test system: HCT116 cells
# Assay: Inhibition of the cell proliferation of HCT116 cells (14C-thymidine incorporation)
# Format: cell-based
# Conditions: Homo sapiens, HCT-116, 96 hours
# Protocol: The antiproliferative activity of the products of the examples of Table 1 was determined by measuring the inhibition of the cell proliferation of HCT116 cells. The cells are seeded into a cell culture medium at a concentration of 10 000 cells per well, in 0.17 ml of medium, and 20 μl of test product, at various concentrations and 10 μl of thymidine [methyl-14C] (100 μCi/ml—specific activity 47.90 mCi/mmol; NEN Technologies reference NEC568 batch 3550-001) are added and the cells are then incubated at 37° C. and 5% CO2.
# Medium used for the HCT116 cell culture: DMEM medium, 2 mM L-glutamine, 200 IU/ml penicillin, 200 μg/ml streptomycin and 10% (V/V) foetal calf serum (Life Technologies).
# After 96 hours, the ^14C-thymidine incorporation is counted in a 1450 Microbeta Wallac Trilux liquid scintillation counter. The results R are expressed in cpm (counts per minute) and converted to percentage growth inhibition GI % by firstly subtracting the mean of the number of cpm of the wells without cells B and then dividing by the number of cpm of the wells of the nontreated cells C comprising 20 μl of product diluting medium containing 1% of ethanol (GI %=(R−B)×100/C %).
# The IC50 values are calculated using equation 205 of the XLFit software (IDBS company, UK) by nonlinear regression analysis using the Marquardt algorithm (Donald W. MARQUARDT, J. Soc. industry. appl, vol 11, No. 2, June, 1963).
row,Structure (SMILES),pIC50
1,CO[C@@H](C(=O)NC1CCc2ccccc2N(C)C1=O)[C@H](O)[C@@H](O)[C@H](O)/C=C/C(C)(C)C (stereo partly shown) [Example 2],7.82
2,CO[C@@H](C(=O)N[C@H]1CCc2cc(Br)ccc2NC1=O)[C@H](O)[C@@H](O)[C@H](O)/C=C/C(C)(C)C [Example 3a],7.49
3,CO[C@@H](C(=O)NC1CCc2ccccc2N(Cc2cc(F)cc(F)c2)C1=O)[C@H](O)[C@@H](O)[C@H](O)/C=C/C(C)(C)C (stereo partly shown) [Example 1],7.85
4,"CO[C@@H](C(=O)NC1CCc2cc(Br)ccc2NC1=O)[C@H](O)[C@@H](O)[C@H](O)/C=C/C(C)(C)C (stereo partly drawn) [Example 3, N-(7-bromo-2-oxo-2,3,4,5-tetrahydro-1H-1-benzazepin-3-yl)-(E)-(2R,3R,4S,5R)-3,4,5-trihydroxy-2-methoxy-8,8-dimethylnon-6-enamide]",7.24

# Now from value to compound:
row,pIC50,Structure (SMILES)
1,7.12,"CO[C@@H](C(=O)NC1CCc2cc(-c3ccccc3)ccc2NC1=O)[C@H](O)[C@@H](O)[C@H](O)/C=C/C(C)(C)C (stereo partly drawn) [Example 4, N-(7-phenyl-2-oxo-2,3,4,5-tetrahydro-1H-1-benzazepin-3-yl)-(E)-(2R,3R,4S,5R)-3,4,5-trihydroxy-2-methoxy-8,8-dimethylnon-6-enamide]"
2,7.85,"CO[C@@H](C(=O)N[C@H]1CCc2cc(-c3ccccc3)ccc2NC1=O)[C@H](O)[C@@H](O)[C@H](O)/C=C/C(C)(C)C [Example 4a, (2R,3R,4S,5R,6E)-3,4,5-trihydroxy-2-methoxy-8,8-dimethyl-N-[(3S)-2-oxo-7-phenyl-2,3,4,5-tetrahydro-1H-1-benzazepin-3-yl]non-6-enamide]"

# Test system: not listed separately
# Assay: in vitro
# Conditions: human, Caco-2
row,Papp,Structure (SMILES)
1,4.8 ×10⁻⁶ cm/s,"CO[C@@H](C(=O)N[C@H]1CCc2cc(-c3ccccc3)ccc2NC1=O)[C@H](O)[C@@H](O)[C@H](O)/C=C/C(C)(C)C [Example 4a, (2R,3R,4S,5R,6E)-3,4,5-trihydroxy-2-methoxy-8,8-dimethyl-N-[(3S)-2-oxo-7-phenyl-2,3,4,5-tetrahydro-1H-1-benzazepin-3-yl]non-6-enamide]"
